We go through one compound from patent US9556153B1, “JAK1 inhibitors” (Eli Lilly and Company, priority 2015, dated 2017).

For this assay, the system named is phosphorylation of STAT3 in the H1975 xenograft. In words: pSTAT3 Mouse IVTI (JAK1) Assay, H1975 xenograft. The format is in vivo. The note with it: single oral dose, two hours, n=1. As for the experimental part:
pSTAT3 Mouse IVTI (JAK1) Assay
The purpose of this assay is to measure the ability of test compounds to inhibit the phosphorylation of STAT3 (STAT3 activation) in the H1975 xenograft mouse model. Grow H1975 cells according to ATCC specifications at the lowest possible passage number available. Culture and maintain cells in RPMI-1640 supplemented with 10% FBS and incubated at 37° C. in 5% CO2. Harvest cells by standard techniques and mix with BD Biosciences basement membrane matrix (MATRIGEL®) to cell suspension to achieve a 1:1 cell/matrix ratio yielding an inoculation volume of 0.2 mL cell/matrix suspension containing 5e6 cells. […] Time course studies are a single dose administered at the TED70 determined from the dose response study.
Harvest and cut tumors to yield approximately 150-250 mm^3 size fragments and immediately drop into a 12×75 mm tube containing 1 mL of ice cold MSD Tris Lysis buffer (Meso Scale Discovery cat# R60TX-2) and 1×HALT (Thermo Scientific product #1861281). […] Cool plate to RT and measure absorbance at or near 562 nm on Molecular Devices Spectra Max. Protein concentrations for each sample are determined using SoftMax Pro 6.3 software program. After tumor samples are quantitated, freeze lysates at −80° C. in the 96 well polypropylene plate and assay at a later date. […]

For `Cc1cc(Nc2cc(O[C@H]3CC[C@@H](NC[C@@H](O)C(F)(F)F)CC3)cc3c2ncn3C)nn1C` [Example 1, (2R)-3-{[cis-4-({4-[(1,5-Dimethyl-1H-pyrazol-3-yl)amino]-1-methyl-1H-benzimidazol-6-yl}oxy)cyclohexyl]amino}-1,1,1-trifluoropropan-2-ol], the “TEC50 (plasma concentration to achieve 50% pSTAT3 inhibition)” value worked out at 11.1 μM and the “TED50 (dose necessary to achieve 50% pSTAT3 inhibition)” value is on record as 35 mg/kg.
